Legend:
5-HT2B receptor = 5-HT2B receptor (Homo sapiens, UniProt P41595); assay: PDSP GPCR binding affinity, 5-HT2B
From the text: (§1) In particular, the Ki (nM) value is provided. […] FIGS. 14-15 are graphical views of Log P vs. Ki, 5-HT2B receptor and Log P vs. Ki, sigma-1 receptor, respectively, summarizing the data presented in Table 6, according to one or more embodiments of the present disclosure. Assay data for compound 53545 against 5-HT7A receptor is presented in FIG. 18 and Tables 8-9 provided below:
Assay data for compound 53529 against 5-HT2B receptor is presented in FIG. 22 and Tables 12-13 provided below: […]

σ1 receptor = target: T1, σ1 receptor (UniProt Q99720); assay: PDSP binding affinity, sigma-1; parameters: species or system human
T1 construct: Ki, Sigma-1; σ1 potency and selectivity, in words; other: relative to compound 4e
From the text: Assay data for compound 53558 against sigma-1 receptor is presented in FIG. 21 and Tables 10 and 11 below: […]

5-HT7 receptor = 5-HT7 receptor (Homo sapiens, UniProt P34969); assay: PDSP GPCR binding affinity, 5-HT7; settings: for 5-HT7 potency, in words: relative to compound 4i
From the text: as §1, with “below: […]” for “below:”

5-HT1A receptor = target: T2, 5-HT1A receptor (Homo sapiens, UniProt P08908); assay: PDSP GPCR binding affinity, 5-HT1A
T2 sequence (P08908 1-422): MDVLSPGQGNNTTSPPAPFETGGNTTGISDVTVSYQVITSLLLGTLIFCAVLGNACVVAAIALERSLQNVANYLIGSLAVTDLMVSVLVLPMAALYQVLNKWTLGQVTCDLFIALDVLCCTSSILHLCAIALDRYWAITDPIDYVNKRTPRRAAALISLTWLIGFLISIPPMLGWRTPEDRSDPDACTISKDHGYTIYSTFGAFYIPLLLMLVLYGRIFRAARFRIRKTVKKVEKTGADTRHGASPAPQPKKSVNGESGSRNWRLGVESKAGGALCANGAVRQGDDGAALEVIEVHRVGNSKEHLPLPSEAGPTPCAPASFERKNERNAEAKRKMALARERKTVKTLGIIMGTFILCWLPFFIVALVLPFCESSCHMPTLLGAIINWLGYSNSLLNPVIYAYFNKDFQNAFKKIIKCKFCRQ
From the text: as §1, with “below: […]” for “below:”

[1] = system: human GPCR (serotonin, adrenergic, dopamine, histamine, muscarinic, opioid, sigma and others); assay: PDSP broad GPCR screen; settings: wider array of GCPR, Table 5
Protocol: The G-Protein-coupled receptor (GPCR) binding affinity of the compounds of the present disclosure was assessed through the Psychoactive Drug Screening Program.
An initial screen of three primary amines was submitted. […] The molecules were screened across a wide range of human GPCR including serotonin (5-HT), α- and β-adrenergic (Alpha and Beta), dopamine (D), histamine (H), muscarinic (M), opioid (OR), sigma (σ), and others (Table 1).

5-HT7 receptor, sequence (P34969 1-445 isoform P34969-2): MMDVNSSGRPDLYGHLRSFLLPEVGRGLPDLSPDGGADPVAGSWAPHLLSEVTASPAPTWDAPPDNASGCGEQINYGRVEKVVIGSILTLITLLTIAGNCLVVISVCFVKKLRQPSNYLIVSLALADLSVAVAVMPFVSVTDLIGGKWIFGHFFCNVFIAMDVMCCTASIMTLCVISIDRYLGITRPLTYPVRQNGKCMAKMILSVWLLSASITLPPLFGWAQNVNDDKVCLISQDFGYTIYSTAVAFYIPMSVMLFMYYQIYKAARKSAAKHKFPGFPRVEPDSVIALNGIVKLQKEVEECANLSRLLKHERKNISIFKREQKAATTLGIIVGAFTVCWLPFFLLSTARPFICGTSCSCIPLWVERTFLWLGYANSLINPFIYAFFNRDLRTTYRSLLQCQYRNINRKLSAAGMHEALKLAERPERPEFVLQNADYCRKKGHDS
5-HT2B receptor, sequence (P41595 whole entry): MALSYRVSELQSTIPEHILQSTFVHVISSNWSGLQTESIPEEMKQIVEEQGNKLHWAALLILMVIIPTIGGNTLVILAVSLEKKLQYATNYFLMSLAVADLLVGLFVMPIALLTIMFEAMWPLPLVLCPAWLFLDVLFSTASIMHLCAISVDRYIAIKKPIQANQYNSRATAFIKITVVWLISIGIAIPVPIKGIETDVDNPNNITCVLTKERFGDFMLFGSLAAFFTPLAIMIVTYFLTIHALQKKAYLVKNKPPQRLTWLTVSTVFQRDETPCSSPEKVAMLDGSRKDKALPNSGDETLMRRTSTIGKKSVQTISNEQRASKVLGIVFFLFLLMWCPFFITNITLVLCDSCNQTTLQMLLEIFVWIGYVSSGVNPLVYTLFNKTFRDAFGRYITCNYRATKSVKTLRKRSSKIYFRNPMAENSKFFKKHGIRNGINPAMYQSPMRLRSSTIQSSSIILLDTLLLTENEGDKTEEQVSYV

Compound: Cc1cc(C)c2c(c1)OC[C@@]1(C)NCC[C@@H]21 [Compound 4f]
- 5-HT2B binding, in words (5-HT2B receptor): enhanced 5-HT2B binding

Compound: C[C@@]12COc3cc(O)ccc3[C@@H]1CCN2 [Compound 4d]
- σ1 binding, in words (σ1 receptor): detrimental to activity

Compound: CN1CC[C@H]2c3ccccc3N(c3ccccc3)C[C@]21C [Compound 10c]
- 5-HT7 potency, in words (5-HT7 receptor): further enhanced

Compound: CC(=O)N1CC[C@H]2c3ccccc3N(c3ccccc3)C[C@]21C [Compound 11c]
- 5-HT7 potency, in words (5-HT7 receptor): removed activity

Compound: CC12CN(c3ccccc3)c3ccccc3C1CCN2 (stereo not shown) [Compound 4i]
- Ki (5-HT1A receptor): > 10000 nM
- Ki (5-HT7 receptor): 6.3 nM
- selectivity for 5-HT7 vs next most sensitive receptor, σ1 (5-HT7 receptor): ~75 fold
- activity across the additional GCPR investigated [1]: minimal activity

Compound: SB 206553 [reference compound]
- Ki (5-HT2B receptor; 5-HT2B receptor, competition binding curve, SB 206553 as reference, read-out: Ki (Table 12)): 9.79 nM

Compound: C[C@@]12COc3cc(OCc4ccccc4)ccc3[C@@H]1CCN2 [Compound 4c]
- σ1 binding, in words (σ1 receptor): potent σ1 ligand

Source: patent US10941153B2, “Substituted phenethylamine derivatives” (REGENTS OF THE UNIVERSITY OF MINNESOTA, priority 2018, dated 2021)
